# From BindingDB's records for doi:10.1016/j.bmcl.2006.12.025 (Pharmacopeia Drug Discovery, 2007)
# Target: Prostacyclin receptor (Homo sapiens, UniProt P43119)
# Assay: IP Receptor Filter Binding Assay and cAMP Assay
# Conditions: pH 7.4; 22 °C
# Excerpt: IP receptor binding activity was quantified via a filter binding assay measuring displacement of [3H]-Iloprost binding to human platelet membranes. Raw data were fit to the […] to calculate IC50 values. EC50/IC50 values were obtained from functional antagonism assay by measuring the inhibition of cAMP production induced by Iloprost in human erythroleukemia (HEL) cells using a Perkin-Elmer LANCETM cAMP detection kit.
# Chain of Prostacyclin receptor (P43119 whole entry): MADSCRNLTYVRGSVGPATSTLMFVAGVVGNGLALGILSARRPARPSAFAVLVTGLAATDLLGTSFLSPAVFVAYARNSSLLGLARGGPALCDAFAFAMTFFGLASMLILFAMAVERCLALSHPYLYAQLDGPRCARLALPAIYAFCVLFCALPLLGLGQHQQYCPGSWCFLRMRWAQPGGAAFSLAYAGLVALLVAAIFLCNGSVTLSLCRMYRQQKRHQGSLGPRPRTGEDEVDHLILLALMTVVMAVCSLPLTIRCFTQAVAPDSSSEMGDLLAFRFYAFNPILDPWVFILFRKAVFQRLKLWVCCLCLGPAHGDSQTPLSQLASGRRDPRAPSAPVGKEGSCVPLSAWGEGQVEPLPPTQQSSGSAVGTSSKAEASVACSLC
row,IC50,Compound
1,138 nM,"CC(=O)Nc1cccc(-c2ccc(Cc3ocnc3C(=O)NCCc3ccccc3)cc2)c1 [5-{[4-(3-acetamidophenyl)phenyl]methyl}-N-(2-phenylethyl)-1,3-oxazole-4-carboxamide]"
2,3580 nM,"CC(=O)Nc1cccc(-c2ccc(Cc3ocnc3C(=O)NC(C)C)cc2)c1 [5-{[4-(3-acetamidophenyl)phenyl]methyl}-N-(propan-2-yl)-1,3-oxazole-4-carboxamide]"
3,476 nM,"CC(=O)Nc1cccc(-c2ccc(Cc3ocnc3C(=O)NCCc3ccncc3)cc2)c1 [5-{[4-(3-acetamidophenyl)phenyl]methyl}-N-[2-(pyridin-4-yl)ethyl]-1,3-oxazole-4-carboxamide]"
4,2130 nM,"CC(=O)Nc1cccc(-c2ccc(Cc3ocnc3C(=O)N(C)CCc3ccccc3)cc2)c1 [5-{[4-(3-acetamidophenyl)phenyl]methyl}-N-methyl-N-(2-phenylethyl)-1,3-oxazole-4-carboxamide]"
5,828 nM,"CC(=O)Nc1cccc(-c2ccc(Cc3ocnc3C(=O)Nc3ccccc3)cc2)c1 [5-{[4-(3-acetamidophenyl)phenyl]methyl}-N-phenyl-1,3-oxazole-4-carboxamide]"
6,16 nM,"CC(=O)Nc1cccc(-c2ccc(Cc3ocnc3C(=O)N[C@@H](Cc3ccccc3)C(=O)O)cc2)c1 [(2S)-2-[(5-{[4-(3-acetamidophenyl)phenyl]methyl}-1,3-oxazol-4-yl)formamido]-3-phenylpropanoic acid]"
7,66 nM,"CC(=O)Nc1cccc(-c2ccc(Cc3ocnc3C(=O)NCc3ccccc3)cc2)c1 [N-benzyl-5-{[4-(3-acetamidophenyl)phenyl]methyl}-1,3-oxazole-4-carboxamide]"

# Further lines, the compound ahead of its results:
row,Compound,IC50
1,"CC(=O)Nc1cccc(-c2ccc(Cc3ocnc3C(=O)NC(C)c3ccccc3)cc2)c1 (racemic) [5-{[4-(3-acetamidophenyl)phenyl]methyl}-N-(1-phenylethyl)-1,3-oxazole-4-carboxamide]",278 nM
2,"CC(=O)Nc1cccc(-c2ccc(Cc3ocnc3C(=O)NCCc3ccccn3)cc2)c1 [5-{[4-(3-acetamidophenyl)phenyl]methyl}-N-[2-(pyridin-2-yl)ethyl]-1,3-oxazole-4-carboxamide]",1010 nM
3,"CC(=O)Nc1cccc(-c2ccc(Cc3ocnc3C(=O)NCCc3cccnc3)cc2)c1 [5-{[4-(3-acetamidophenyl)phenyl]methyl}-N-[2-(pyridin-3-yl)ethyl]-1,3-oxazole-4-carboxamide]",741 nM
4,"CC(=O)Nc1cccc(-c2ccc(Cc3ocnc3C(=O)N[C@H]3C[C@@H]3c3ccccc3)cc2)c1 [5-{[4-(3-acetamidophenyl)phenyl]methyl}-N-[(1S,2R)-2-phenylcyclopropyl]-1,3-oxazole-4-carboxamide]",358 nM
5,"CC(=O)Nc1cccc(-c2ccc(Cc3ocnc3C(=O)NC[C@H](C)c3ccccc3)cc2)c1 [5-{[4-(3-acetamidophenyl)phenyl]methyl}-N-[(2R)-2-phenylpropyl]-1,3-oxazole-4-carboxamide]",51 nM
6,"CC(=O)Nc1cccc(-c2ccc(Cc3ocnc3C(=O)NC[C@@H](C)c3ccccc3)cc2)c1 [5-{[4-(3-acetamidophenyl)phenyl]methyl}-N-[(2S)-2-phenylpropyl]-1,3-oxazole-4-carboxamide]",296 nM
7,"CNC(=O)c1ncoc1Cc1ccc(-c2cccc(NC(C)=O)c2)cc1 [5-{[4-(3-acetamidophenyl)phenyl]methyl}-N-methyl-1,3-oxazole-4-carboxamide]",3310 nM
8,"CC(=O)Nc1cccc(-c2ccc(Cc3ocnc3C(=O)N[C@H](Cc3ccccc3)C(=O)O)cc2)c1 [(2R)-2-[(5-{[4-(3-acetamidophenyl)phenyl]methyl}-1,3-oxazol-4-yl)formamido]-3-phenylpropanoic acid]",831 nM
9,"CC(=O)Nc1cccc(-c2ccc(Cc3ocnc3C(=O)NCCN(C)C)cc2)c1 [N-[2-(dimethylamino)ethyl]-5-{[4-(3-acetamidophenyl)phenyl]methyl}-1,3-oxazole-4-carboxamide]",3310 nM

# Same assay, conditions: pH 7.4; 22 °C; read-out: IC50
row,IC50,Compound
1,12400 nM,"CC(=O)Nc1cccc(-c2ccc(Cc3ocnc3C(=O)NC(C)C)cc2)c1 [5-{[4-(3-acetamidophenyl)phenyl]methyl}-N-(propan-2-yl)-1,3-oxazole-4-carboxamide]"
